Laboratory results as given in patent publication US20260174777A1, “METHODS OF TREATMENT” (Arena Pharmaceuticals, Inc., priority 2022, published 2026).
“Also recorded” adds a separate entry of the source. Like-named read-outs stand apart in the source and are kept apart here.

Tests used:
prolactin [1] = experiment: single ascending dose study with healthy subjects: prolactin pharmacodynamics; format: in vivo, human; details: single doses
[2] = multiple ascending dose study with healthy subjects: safety and tolerability; format: in vivo, human
[3] = for CL/F Mean / Cav Mean / Ctrough Mean: healthy subjects
[4] = single ascending dose study with healthy subjects: safety and tolerability; format: in vivo, human; details: single doses 1 to 24 mg
prolactin [5] = experiment: multiple ascending dose study with healthy subjects: prolactin pharmacodynamics; format: in vivo, human; details: multiple doses TID
Description: Prolactin serum concentrations were summarized by timepoint, dose and part. Absolute and percent change from baseline in prolactin value was calculated, with predose value on Day 1 considered as the baseline value. Observed prolactin data, absolute and percent change from baseline versus time were plotted.

[6] = single ascending dose study with healthy subjects: pharmacokinetics
clinical [7] = details: human; for CL renal: plasma and urine; for half-life / Cmax / Tmax / AUC(0-inf) / Vd/F: plasma
clinical [8] = details: human, plasma, oral
[9] = system: drop seizures in patients with Lennox-Gastaut Syndrome; details: Phase 3 studies, versus placebo; cited from earlier work
[10] = multiple doses TID, healthy subjects
[11] = 3 mg TID, no titration, 14 days
[12] = 6 mg TID, no titration, 14 days
[13] = 12 mg TID, no titration, 14 days
[14] = 18 mg TID, no titration, 14 days

C[C@H]1CN2CCNCc3ccc(C(=O)NCC(F)F)c1c32 [Compound 1, (R)-N-(2,2-difluoroethyl)-7-methyl-1,2,3,4,6,7-hexahydro-[1,4]diazepino[6,7,1-hi]indole-8-carboxamide]
prolactin levels by 24-hour postdose (prolactin [1]): returned to baseline for only the 6 mg dose level
prolactin mean % CFB at 2 hours (prolactin [1]): increased in a dose-dependent manner, with a greater than dose proportional increase between 6 mg and 12 mg doses
prolactin (prolactin [1]; within 2 h): increased within 2 h in a dose- and concentration-dependent manner
serious adverse event ([2]; after stopping treatment with 24 mg TID): One
subjects discontinued due to adverse events ([2]; forty-three subjects enrolled): Three
most common TEAEs [2, 10]: headache, somnolence, dizziness, dizziness postural, micturition urgency & orthostatic hypotension
severity of majority of treatment emergent adverse events (TEAEs) [2, 10]: mild to moderate
severe TEAEs ([2]; occurring in 3 subjects, all after cessation of dosing): Five
CL/F Mean [3, 11]: 125 L/h
Cav Mean [3, 11]: 3.39 ng/mL
Ctrough Mean [3, 11]: 1.94 ng/mL
CL/F Mean [3, 12]: 66.6 L/h
Cav Mean [3, 12]: 12.5 ng/mL
Ctrough Mean [3, 12]: 7.02 ng/mL
CL/F Mean [3, 13]: 63.1 L/h
Cav Mean [3, 13]: 26.6 ng/mL
Ctrough Mean [3, 13]: 15.8 ng/mL
CL/F Mean [3, 14]: 45.9 L/h
Cav Mean [3, 14]: 60.0 ng/mL
Ctrough Mean [3, 14]: 37.7 ng/mL
CL/F Mean ([3]; 24 mg TID, 3-day titration): 62.9 L/h
Cav Mean ([3]; 24 mg TID, 3-day titration): 60.1 ng/mL
Ctrough Mean ([3]; 24 mg TID, 3-day titration): 34.0 ng/mL
dose eliminated by the renal route in 48 hours ([3]; 12/24 mg TID titration regimen): 12.3%
accumulation upon multiple dosing ([3]; TID regimen, listed as Study Drug): Significant accumulation; also recorded: dose dependent accumulation
steady-state achieved by ([3]; doses up to 18 mg TID, in most cases): ≤ 10 days
absorption into systemic circulation ([3]; first dose and multiple oral doses, powder-in-capsule formulation): rapidly absorbed
dosing time after which most subjects were at steady state ([3]; non-titration part): 10 days
most common treatment emergent adverse events [4]: headache, postural dizziness, and nausea, which were mild to moderate in severity
mean percent change from baseline prolactin level at 2 hours (prolactin [5]): increased with increasing doses from 3 mg to 12 mg and plateaued thereafter
prolactin (prolactin [5]): increased in a dose- and concentration-dependent manner, with greater increase seen after first dose
dose proportionality of peak and total exposure ([6]; single doses 1 to 24 mg): slightly greater than dose proportional especially at higher doses
absorption into the systemic circulation ([6]; single oral dose, powder in capsule formulation): rapidly absorbed
CL renal (clinical [7]; oral, 1 mg): 50 mL/min
CL renal (clinical [7]; oral, 3 mg): 60.3 mL/min
CL renal (clinical [7]; oral, 6 mg): 57 mL/min
CL renal (clinical [7]; oral, 12 mg): 70.8 mL/min
CL renal (clinical [7]; oral, 24 mg): 62.5 mL/min
half-life (clinical [7]; oral): 5 to 7 h
Cmax (clinical [7]; oral, 1 mg): 1.08 ng/mL
Tmax (clinical [7]; oral, 1 mg): 1.54 h
AUC(0-inf) (clinical [7]; oral, 3 mg): 40.9 ng·h/mL
Cmax (clinical [7]; oral, 3 mg): 6.36 ng/mL
Tmax (clinical [7]; oral, 3 mg): 1.02 h
Vd/F (clinical [7]; oral, 3 mg): 608 L
half-life (clinical [7]; oral, 3 mg): 4.94 h
AUC(0-inf) (clinical [7]; oral, 6 mg): 58.7 ng·h/mL
Cmax (clinical [7]; oral, 6 mg): 9.52 ng/mL
Tmax (clinical [7]; oral, 6 mg): 1.5 h
Vd/F (clinical [7]; oral, 6 mg): 1230 L
half-life (clinical [7]; oral, 6 mg): 6.66 h
AUC(0-inf) (clinical [7]; oral, 12 mg): 101 ng·h/mL
Cmax (clinical [7]; oral, 12 mg): 17 ng/mL
Tmax (clinical [7]; oral, 12 mg): 1.25 h
Vd/F (clinical [7]; oral, 12 mg): 929 L
half-life (clinical [7]; oral, 12 mg): 4.67 h
AUC(0-inf) (clinical [7]; oral, 24 mg): 288 ng·h/mL
Cmax (clinical [7]; oral, 24 mg): 59.3 ng/mL
Tmax (clinical [7]; oral, 24 mg): 1.07 h
Vd/F (clinical [7]; oral, 24 mg): 697 L
half-life (clinical [7]; oral, 24 mg): 5.09 h
Tmax (clinical [7]; po): 1 to 1.5 h
Tmax (clinical [8]): 1 to 2 h
AUC (clinical [8]; 3 mg TID): 27.1 ng·h/mL
AUC(0-inf) (clinical [8]; 3 mg TID): 46.1 ng·h/mL
AUC(0-t) (clinical [8]; 3 mg TID): 38.6 ng·h/mL
Cmax (clinical [8]; 3 mg TID): 6.61 ng/mL
Tmax (clinical [8]; 3 mg TID): 1.01 h
half-life (clinical [8]; 3 mg TID): 5.56 h
AUC (clinical [8]; 6 mg TID): 99.8 ng·h/mL
AUC(0-inf) (clinical [8]; 6 mg TID): 152 ng·h/mL
AUC(0-t) (clinical [8]; 6 mg TID): 150 ng·h/mL
Cmax (clinical [8]; 6 mg TID): 20.7 ng/mL
Tmax (clinical [8]; 6 mg TID): 1.78 h
half-life (clinical [8]; 6 mg TID): 4.81 h
AUC (clinical [8]; 12 mg TID): 213 ng·h/mL
AUC(0-inf) (clinical [8]; 12 mg TID): 330 ng·h/mL
AUC(0-t) (clinical [8]; 12 mg TID): 327 ng·h/mL
Cmax (clinical [8]; 12 mg TID): 44.9 ng/mL
Tmax (clinical [8]; 12 mg TID): 1.27 h
half-life (clinical [8]; 12 mg TID): 5.96 h
AUC (clinical [8]; 18 mg TID): 480 ng·h/mL
AUC(0-inf) (clinical [8]; 18 mg TID): 775 ng·h/mL
AUC(0-t) (clinical [8]; 18 mg TID): 773 ng·h/mL
Cmax (clinical [8]; 18 mg TID): 98.6 ng/mL
Tmax (clinical [8]; 18 mg TID): 2 h
half-life (clinical [8]; 18 mg TID): 5.64 h
AUC (clinical [8]; 24 mg TID): 480 ng·h/mL
AUC(0-inf) (clinical [8]; 24 mg TID): 741 ng·h/mL
AUC(0-t) (clinical [8]; 24 mg TID): 737 ng·h/mL
Cmax (clinical [8]; 24 mg TID): 107 ng/mL
Tmax (clinical [8]; 24 mg TID): 1.04 h
half-life (clinical [8]; 24 mg TID): 6.5 h

CCNC(C)Cc1cccc(C(F)(F)F)c1 (stereo not shown) [fenfluramine]
reduction of the frequency of drop seizures [9]: superior to placebo
